Article PMC7435853, “L-Malate (−2) Protonation State is Required for Efficient Decarboxylation to L-Lactate by the Malolactic Enzyme of Oenococcus oeni” (Molecules, 2020)

Biological target: T1, malolactic enzyme (MLE) (Oenococcus oeni, UniProt Q04DQ3)
T1 construct: gene OEOE_1564; full-length gene (1626 bp), His-tagged (HisTrap) from pET vector (text says pET28a and pET21a), E. coli BL21(DE3); reported dimer
T1 sequence (Q04DQ3 1-541): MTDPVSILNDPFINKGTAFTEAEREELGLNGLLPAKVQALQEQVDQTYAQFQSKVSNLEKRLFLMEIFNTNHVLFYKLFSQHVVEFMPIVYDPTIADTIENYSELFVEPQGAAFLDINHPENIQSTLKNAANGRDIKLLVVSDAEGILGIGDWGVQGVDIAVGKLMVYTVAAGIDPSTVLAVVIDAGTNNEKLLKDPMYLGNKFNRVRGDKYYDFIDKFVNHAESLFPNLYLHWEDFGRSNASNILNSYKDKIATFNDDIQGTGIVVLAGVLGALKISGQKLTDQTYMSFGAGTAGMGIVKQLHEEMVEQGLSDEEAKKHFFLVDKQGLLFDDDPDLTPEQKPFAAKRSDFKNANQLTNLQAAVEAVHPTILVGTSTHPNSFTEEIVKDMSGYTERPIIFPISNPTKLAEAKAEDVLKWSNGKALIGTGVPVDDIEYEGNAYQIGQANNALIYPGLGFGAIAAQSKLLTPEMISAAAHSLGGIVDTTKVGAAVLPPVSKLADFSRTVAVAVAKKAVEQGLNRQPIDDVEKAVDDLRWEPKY
Test: isothermal titration calorimetry
Format: binding
Excerpt: isothermal titration calorimetry on malolactic enzyme (MLE)

| Kd | SMILES |
| --- | --- |
| 3190 nM | O=C(O)C[C@H](O)C(=O)O [MAL^−, L-malate (−1)] |
| 1290 nM | O=C(O)C[C@H](O)C(=O)O [MAL^2−, L-malate (−2)] |
